Assay results as given in patent publication US12083141B2, “Treatment of hyperglycemia with solute carrier family 39 member 5 (SLC39A5) inhibitors” (Regeneron Pharmaceuticals, Inc., priority 2019, dated 2024).

Key:
[1] = tested on: serine/threonine phosphatase; experiment: Ex vivo serine/threonine phosphatase activity in SLC39A5 loss-of-function mice, diet zinc supplementation; details: high fat diets supplemented with different zinc concentrations, ex vivo assay
[2] = tested on: human primary hepatocytes; experiment: Zinc activation of LKB1/AMPK and AKT signaling in primary hepatocytes; type: cell-based; details: acute, dose dependent
Method: Liver protein was extracted using RIPA buffer (Cell signaling technology, Cat #9806) with Halt Protease & Phosphatase Inhibitor Cocktail (ThermoFisher Scientific, Cat #78440). Five microgram protein of each sample were separated in NuPAGE 4-12% Bis-Tris protein gel (Invitrogen, Cat #WG1403BOX), and transferred to nitrocellulose membrane using Trans-Blot® Turbo™ Transfer System (BioRad). Blotting was performed using the following Cell Signaling Technology antibodies: Phospho-AMPKα (Thr172) (Cell signaling technology, Cat #2535), AMPKα (Cell signaling technology, Cat #5831), β-Actin (Sigma, Cat #5441), Phospho-AKT (Ser473) (Cell signaling technology, Cat #4060), AKT (Cell signaling technology, Cat #9272), Phospho-LKB1 (Ser428) (Cell signaling technology, Cat #3482), LKB1 (Cell signaling technology, Cat #3050), rabbit IgG conjugated to horseradish peroxidase (HRP) (Cell signaling technology, Cat #7074) and mouse IgG conjugated to HRP (Cell signaling technology, Cat #7076). Blots were developed using SuperSignal West Femto Substrate (ThermoFisher Scientific, Cat #34095). Signals were captured using ImageQuant LAS4000 (GE Healthcare).

tyrosine phosphatase [3] = experiment: Dependence of tyrosine phosphatase activity on zinc concentration; type: biochemical; details: increased concentrations of zinc
[4] = tested on: human hepatoma HepG2 cells; experiment: Zinc activation of LKB1/AMPK and AKT signaling in HepG2 cells; type: cell-based; details: acute, dose dependent
tyrosine phosphatase [5] = experiment: Ex vivo tyrosine phosphatase activity in SLC39A5 loss-of-function mice, diet zinc supplementation; details: high fat diets supplemented with different zinc concentrations, ex vivo assay
mice fed high fat diet = experiment: Zinc supplementation of high fat diet in mice (DIO); type: in vivo; details: for hepatic zinc levels: zinc-supplemented diet
Method: Four groups of 6-week old male mice (16 per group) were fed either normal chow or high fat diets supplemented with different zinc concentrations for either 4 or 6 weeks (FIG. 2A). The levels of zinc were analyzed after 4 weeks (FIGS. 2B and 2C) and after 6 weeks (FIGS. 2D and 2E).

[6] = tested on: serine/threonine phosphatase; experiment: Dependence of serine/threonine phosphatase activity on zinc concentration; type: biochemical; details: increased concentrations of zinc

SMILES: [Zn] [zinc]
- rescue of serine/threonine phosphatase inhibition caused by loss of SLC39A5 [1]: did not rescue the inhibition
- LKB1/AMPK and AKT signaling pathways [2]: acutely activates LKB1/AMPK and AKT signaling pathways in dose dependent manner
- tyrosine phosphatase activity (tyrosine phosphatase [3]): suppressed the activity
- LKB1/AMPK and AKT signaling pathways [4]: acutely activates LKB1/AMPK and AKT signaling pathways in dose dependent manner
- rescue of tyrosine phosphatase inhibition caused by loss of SLC39A5 (tyrosine phosphatase [5]): did not rescue the inhibition
- fat accumulation in liver (microscopic analysis) (mice fed high fat diet; high fat diet supplemented with zinc): reverses fat accumulation in liver
- intravenous glucose tolerance test, blood glucose (mice fed high fat diet; high fat diet with increasing diet zinc concentration, 4 or 6 weeks): mitigated blood glucose increase mediated by high fat diet
- intravenous glucose tolerance test, area under the curve (mice fed high fat diet; high fat diet with increasing diet zinc concentration, effect not statistically significant): reduced area under the curve
- serum zinc levels (mice fed high fat diet; male mice, diets supplemented with different zinc concentrations, 4 and 6 weeks): no significant change
- hepatic zinc levels (mice fed high fat diet; male mice, after 4 weeks): no significant change
- hepatic zinc levels (mice fed high fat diet; male mice, after 6 weeks, correlated with level of zinc in diet): statistically significant increase
- serine/threonine phosphatase activity [6]: suppressed the activity
